Measured values taken from patent publication US20240383908A1, “SYNTHESIS AND APPLICATION OF PHOSPHATASE DEGRADER” (HINOVA PHARMACEUTICALS INC., priority 2021, published 2024).
Counter-ions that a name gives are not always drawn.

Target: T1, SHP2 protein (Homo sapiens, UniProt Q06124)
T1 sequence (Q06124 1-593): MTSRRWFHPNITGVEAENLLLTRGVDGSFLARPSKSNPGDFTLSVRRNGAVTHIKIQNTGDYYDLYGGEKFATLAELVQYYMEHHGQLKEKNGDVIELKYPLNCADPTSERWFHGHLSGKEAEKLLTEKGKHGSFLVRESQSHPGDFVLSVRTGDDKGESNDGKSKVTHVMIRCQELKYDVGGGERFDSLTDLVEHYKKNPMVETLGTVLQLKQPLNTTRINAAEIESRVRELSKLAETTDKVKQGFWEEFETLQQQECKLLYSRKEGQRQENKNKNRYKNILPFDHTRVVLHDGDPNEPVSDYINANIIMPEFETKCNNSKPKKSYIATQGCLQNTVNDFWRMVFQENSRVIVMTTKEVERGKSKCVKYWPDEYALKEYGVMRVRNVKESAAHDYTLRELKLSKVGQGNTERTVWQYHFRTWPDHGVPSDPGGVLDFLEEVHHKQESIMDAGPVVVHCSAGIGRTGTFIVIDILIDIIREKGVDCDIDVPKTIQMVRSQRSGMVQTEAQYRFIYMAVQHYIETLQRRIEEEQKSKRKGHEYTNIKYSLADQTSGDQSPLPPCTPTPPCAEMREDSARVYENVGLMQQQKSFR
Assay: Degradation activity on SHP2 protein in MIA Paca-2 cells (Western blot, DC50)
Assay type: cell-based
Set-up: endogenous in cells; host or cells: MIA Paca-2 cells
Conditions: read-out: Degradation activity for differenct cell lines MIA Paca-2 (DC50)
Experimental: (1) MV-411 cells were cultured in the cell culture medium, and then well-growing cells were selected and inoculated in a 12-well plate, with 1 mL/well and 1×10^6 cells/well. The plate was incubated overnight in a 5% CO2 cell incubator at 37° C.
(2) 10 mM storage solution of each drug was prepared using dimethylsulfoxide (DMSO). The stock solution was diluted gradually with DMSO before use, and then 1 μL of the compound solution was added to the cell culture well (to ensure that the DMSO concentration in the culture system was […]), so that the final drug concentration is 100 nM, 10 nM, 3 nM, 1 nM, 0.3 nM, and 0.1 nM. Two wells were set for each concentration. The plate was gently shaken and mixed. Additionally, negative control wells (containing an equal amount of DMSO) and positive control wells were included.
(3) After 24 hours of cultivation, the cells were lysed using RIPA cell lysate, and the proteins were extracted. The protein concentration was measured using a BCA assay kit. 5× concentrated protein buffer was loaded, heated at 100° C. for 5 min, and then the sample was stored at −20° C.
(4) For each well, 30 μg of protein was loaded to polyacrylamide gel for electrophoresis.
(5) The protein was transferred from polyacrylamide gel to PVDF membrane, and sealed at room temperature with 5% skimmed milk for 1 h, which was then incubated with the primary antibodies (Anti-SHP2 rabbit mAb and Anti-GAPDH rabbit mAb) at 4° C. overnight. The membrane was washed three times with TBST solution, 10 minutes for each time. After that, the membrane was incubated with the secondary antibodies (horseradish peroxidase labeled goat anti-rabbit IgG) at room temperature for 2 h, and then washed three times with TBST solution, 10 minutes for each time, followed by exposure.
(6) The images were analyzed with Image J grayscale, and the degradation ratio of protein bands in the test group was calculated, based on the negative control group (DMSO) (100%).
(7) Using the Dose-response-inhibition equation in the data processing software GraphPad Prism 8, the DC50 value was obtained (which represents the drug concentration corresponding to 50% degradation of the target protein).
Using similar methods and different cell lines, the degradation activity of the compound according to the present invention on SHP2 protein of different cell lines was tested under suitable culture conditions.

DC50 [nM] | Compound
> 1000 | Cc1cc(C(=O)Nc2cccc(Sc3cnc(N4CCC(C)(N)CC4)cn3)c2)ccc1N1CCC(N2CC=C(c3cnc(C(=O)NCc4ccc5c(c4)CN(C4CCC(=O)NC4=O)C5=O)c(Cl)c3)CC2)CC1 (stereo not drawn) [Compound 440]
> 1000 | CC1(N)CCN(c2cnc(Sc3cccc(NC(=O)c4ccc(N5CCC(N6CCN(c7ccc8c(c7)CN(C7CCC(=O)NC7=O)C8=O)CC6)CC5)c(F)c4)c3)cn2)CC1 (stereo not drawn) [Compound 278]
< 100 | CC1(N)CCN(c2cnc(Sc3cccc(NC(=O)c4ccc(N5CCC(N6CCN(c7ccc(C(=O)NCc8ccc9c(c8)CN(C8CCC(=O)NC8=O)C9=O)nn7)CC6)CC5)cc4)c3)cn2)CC1 (stereo not drawn) [Compound 389]
100 to 1000 | C[C@@H]1OCC2(CCN(c3cnc(Sc4cccc(NC(=O)c5ccc(N6CCC(N7CC=C(c8ccc(C(=O)NCc9ccc%10c(c9)CN(C9CCC(=O)NC9=O)C%10=O)c(F)n8)CC7)CC6)c(F)c5)c4)cn3)CC2)[C@@H]1N (stereo partly drawn) [Compound 472]
< 100 | Cc1ncsc1-c1ccc([C@H](C)NC(=O)[C@@H]2C[C@@H](O)CN2C(=O)[C@@H](NC(=O)c2cnc(N3CCN(C4CC(C(=O)Nc5cccc(Sc6cnc(N7CCC8(CC7)CO[C@@H](C)[C@H]8N)cn6)c5)C4)CC3)nc2)C(C)(C)C)cc1 (stereo partly drawn) [Compound 294, 2-(4-(3-((3-((5-((3S,4S)-4-amino-3-methyl-2-oxa-8-azaspiro[4.5]decan-8-yl)pyrazin-2-yl)thio)phenyl)carbamoyl)cyclobutyl)piperazin-1-yl)-N—((S)-1-((2S,4R)-4-hydroxyl-2-(((S)-1-(4-(4-methylthiazol-5-yl)phenyl)ethyl)carbamoyl)pyrrolin-1-yl)-3,3-dimethyl-1-oxobutane-2-yl)pyrimidine-5-formamide hydrochloride]
> 1000 | CC1(N)CCN(c2cnc(Sc3cccc(NC(=O)[C@H]4C[C@@H]4c4ccc(N5CCN(c6ccc(C(=O)N7CCN(c8ccc9c(c8)CN(C8CCC(=O)NC8=O)C9=O)CC7)nn6)CC5)c(F)c4)c3)cn2)CC1 (stereo partly drawn) [Compound 283]
> 1000 | CC1(N)CCN(c2cnc(Sc3cccc(NC(=O)c4ccc(CN5CCN(c6ccc7c(c6)C(=O)N(C6CCC(=O)NC6=O)C7=O)CC5)cc4)c3)cn2)CC1 (stereo not drawn) [Compound 288]
> 1000 | CC1(N)CCN(c2cnc(Sc3cccc(NC(=O)c4ccc(N5CCC(C(=O)NCc6ccc7c(c6)CN(C6CCC(=O)NC6=O)C7=O)CC5)c(F)c4)c3)cn2)CC1 (stereo not drawn) [Compound 306]
< 100 | NC1CCN(c2cnc(Sc3cccc(NC(=O)c4ccc(N5CCC(N6CC=C(c7ccc(C(=O)NCc8ccc9c(c8)CN(C8CCC(=O)NC8=O)C9=O)nc7)CC6)CC5)cc4)c3)cn2)CC1F (stereo not drawn) [Compound 337]
> 1000 | COC(=O)NC1(C)CCN(c2cnc(Sc3cccc(NC(=O)c4ccc(N5CCC(N6CC=C(c7ccc(C(=O)NCc8ccc9c(c8)CN(C8CCC(=O)NC8=O)C9=O)nc7)CC6)CC5)c(F)c4)c3)cn2)CC1 (stereo not drawn) [Compound 424]
> 1000 | CC1(N)CCN(c2cnc(Sc3cccc(NC(=O)C4(c5ccc(N6CCN(c7ccc(C(=O)NCc8ccc9c(c8)CN(C8CCC(=O)NC8=O)C9=O)nc7)CC6)cc5)CC4)c3)cn2)CC1 (stereo not drawn) [Compound 332]
> 1000 | CC1(N)CCN(c2cnc(Sc3cccc(NCc4ccc(CN5CCN(c6ccc7c(c6)CN(C6CCC(=O)NC6=O)C7=O)CC5)cc4)c3)cn2)CC1 (stereo not drawn) [Compound 254]
< 100 | C[C@@H]1OCC2(CCN(c3cnc(Sc4cccc(NC(=O)C5CC(N6CC=C(c7ccc(C(=O)NCc8ccc9c(c8)CN(C8CCC(=O)NC8=O)C9=O)nc7)CC6)C5)c4)cn3)CC2)[C@@H]1N (stereo partly drawn) [Compound 477]
> 1000 | C[C@@H]1OCC2(CCN(c3cnc(Sc4cccc(NCc5ccc(CN6CCN(c7ccc(C(=O)NCc8ccc9c(c8)CN(C8CCC(=O)NC8=O)C9=O)nn7)CC6)cc5)c4)cn3)CC2)[C@@H]1N (stereo partly drawn) [Compound 253]
> 1000 | CC1(N)CCN(c2cnc(Sc3cccc(NC(=O)c4ccc(N5CCC(N6CCN(c7ccc8c(c7)C(=O)N(C7CCC(=O)NC7=O)C8=O)CC6)CC5)c(F)c4)c3)cn2)CC1 (stereo not drawn) [Compound 277]
< 100 | C[C@@H]1OCC2(CCN(c3cnc(Sc4cccc(NC(=O)c5ccc(C6CC(N7CC=C(c8ccc(C(=O)NCc9ccc%10c(c9)CN(C9CCC(=O)NC9=O)C%10=O)nc8)CC7)C6)cc5)c4)cn3)CC2)[C@@H]1N (stereo partly drawn) [Compound 504]
> 1000 | CC1(N)CCN(c2cnc(Sc3cccc(NC(=O)C4CC45CCN(C4CCN(c6ccc(C(=O)NCc7ccc8c(c7)CN(C7CCC(=O)NC7=O)C8=O)nn6)CC4)CC5)c3)cn2)CC1 (stereo not drawn) [Compound 290]
< 100 | C[C@@H]1OCC2(CCN(c3cnc(Sc4cccc(NC(=O)COc5ccc(N6CCN(c7ccc(C(=O)NCc8ccc9c(c8)CN(C8CCC(=O)NC8=O)C9=O)nn7)CC6)cc5)c4)cn3)CC2)[C@@H]1N (stereo partly drawn) [Compound 263]
< 100 | C[C@@H]1OCC2(CCN(c3cnc(Sc4cccc(NC(=O)c5ccc(N6CCC(N7CC=C(c8ccc(C(=O)NCc9ccc%10c(c9)CN(C9CCC(=O)NC9=O)C%10=O)cc8Cl)CC7)CC6)c(F)c5)c4)cn3)CC2)[C@@H]1N (stereo partly drawn) [Compound 459]
> 1000 | C[C@@H]1OCC2(CCN(c3cnc(Sc4cccc(NC(=O)CCCN5CCN(c6ccc(C(=O)NCc7ccc8c(c7)C(=O)N(C7CCC(=O)NC7=O)C8)nn6)CC5)c4)cn3)CC2)[C@@H]1N (stereo partly drawn) [Compound 262]
< 100 | CC1(N)CCN(c2cnc(Sc3cccc(NC(=O)c4ccc(N5CCC(N6CC=C(c7cnc(C(=O)NCc8ccc9c(c8)CN(C8CCC(=O)NC8=O)C9=O)c(Cl)c7)CC6)CC5)c(F)c4)c3)cn2)CC1 (stereo not drawn) [Compound 413]
100 to 1000 | Cc1cc(C(=O)Nc2cccc(Sc3cnc(N4CCC(C)(N)CC4)cn3)c2)ccc1N1CCC(N2CC=C(c3ccc(C(=O)NCc4ccc5c(c4)CN(C4CCC(=O)NC4=O)C5=O)cc3)CC2)CC1 (stereo not drawn) [Compound 453]
< 100 | Cc1cc(C2=CCN(C3CCN(c4ccc(C(=O)Nc5cccc(Sc6cnc(N7CCC8(CC7)CO[C@@H](C)[C@H]8N)cn6)c5)cc4F)CC3)CC2)ncc1C(=O)NCc1ccc2c(c1)CN(C1CCC(=O)NC1=O)C2=O (stereo partly drawn) [Compound 488]
< 100 | Cc1cc(N2CCC(N3CC=C(c4cnc(C(=O)NCc5ccc6c(c5)CN(C5CCC(=O)NC5=O)C6=O)c(F)c4)CC3)CC2)ccc1C(=O)Nc1cccc(Sc2cnc(N3CCC(C)(N)CC3)cn2)c1 (stereo not drawn) [Compound 438]
100 to 1000 | CC1(N)CCN(c2cnc(Sc3cccc(NC(=O)c4ccc(N5CCC(N6CC=C(c7cnc(C(=O)NCc8ccc9c(c8)CN(C8CCC(=O)NC8=O)C9=O)c(Cl)c7)CC6)CC5)nc4)c3)cn2)CC1 (stereo not drawn) [Compound 431]
< 100 | CC1(N)CCN(c2cnc(Sc3cccc(NC(=O)c4ccc(N5CCC(N6CC=C(c7ccc(C(=O)NCc8ccc9c(c8)CN(C8CCC(=O)NC8=O)C9=O)nc7)CC6)CC5)c(F)c4)c3)cn2)CC1 (stereo not drawn) [Compound 295, hydrochloride]
> 1000 | CC1(N)CCN(c2cnc(Sc3cccc(N4CCC(CN5CCN(c6ccc7c(c6)CN(C6CCC(=O)NC6=O)C7=O)CC5)CC4)c3)cn2)CC1 (stereo not drawn) [Compound 341]
> 1000 | CC1(N)CCN(c2cnc(Sc3cccc(NCC4CCC(N5CCN(c6ccc7c(c6)CN(C6CCC(=O)NC6=O)C7=O)CC5)CC4)c3)cn2)CC1 (stereo not drawn) [Compound 256]
< 100 | CC1(N)CCN(c2cnc(Sc3cccc(NC(=O)C4CCC(N5CCC(N6CC=C(c7ccc(C(=O)NCc8ccc9c(c8)CN(C8CCC(=O)NC8=O)C9=O)nc7)CC6)C(F)C5)CC4)c3)cn2)CC1 (stereo not drawn) [Compound 420]
100 to 1000 | CC1(N)CCN(c2cnc(Sc3cccc(NC(=O)c4cnc(N5CCC(N6CC=C(c7ccc(C(=O)NCc8ccc9c(c8)CN(C8CCC(=O)NC8=O)C9=O)nc7)CC6)CC5)cn4)c3)cn2)CC1 (stereo not drawn) [Compound 430]
